Assay results taken from the NIST ThermoML archive (doi:10.1021/je300487n).

Columns and labels:
[1] = for viscosity / mass density: 101.33 kPa, Liquid; for viscosity: Concentric cylinders viscometry; for mass density: Vibrating tube method; for surface tension liquid-gas: Drop volume
[2] = refractive index (Na D-line) (dimensionless); conditions: 101.33 kPa, Liquid, Standard Abbe refractometry

CC(=O)[O-].CCCCn1cc[n+](C)c1 [1-butyl-3-methylimidazolium acetate]
Conditions | mass density, [1] [kg/m3] | refractive index, [2] | surface tension liquid-gas, [1] [mN/m] | viscosity, [1] [mPa·s]
283.15 K | 1062.2 | 1.49269 | – | 1037.2
288.15 K | 1058.9 | 1.49158 | – | 658.84
293.15 K | 1055.5 | 1.49021 | – | 429.11
298 K | – | – | 36.4 | –
298.15 K | 1052.3 | 1.4889 | – | 297.39
303.15 K | 1049.2 | 1.48725 | – | 209.65
307.8 K | – | – | 35.9 | –
308.15 K | 1046.1 | 1.4858 | – | 152.07
313.15 K | 1043 | 1.48438 | – | 112.23
318 K | – | – | 35.5 | –
318.15 K | 1040 | 1.48297 | – | 86.07
323.15 K | 1037 | 1.4806 | – | 66.82
328.15 K | 1034 | 1.47915 | – | 52.84
328.6 K | – | – | 35.1 | –
333.15 K | 1031 | 1.4777 | – | 42.67
338.15 K | 1028 | 1.47624 | – | 34.66
339 K | – | – | 34.7 | –
343.15 K | 1025 | 1.47463 | – | 28.69
348.15 K | 1022.1 | 1.47318 | – | 24.04
353.15 K | 1019.1 | 1.4718 | – | 20.76
358.15 K | 1016.2 | – | – | 17.45
363.15 K | 1013.3 | – | – | 15.08

CC(=O)[O-].CCn1cc[nH+]c1 [1-ethyl-1H-imidazolium acetate]
Conditions | mass density, [1] [kg/m3] | refractive index, [2] | surface tension liquid-gas, [1] [mN/m] | viscosity, [1] [mPa·s]
283.15 K | 1047.2 | 1.46347 | – | 7.88
288.15 K | 1042.9 | 1.4616 | – | 6.669
293.15 K | 1038.5 | 1.45966 | – | 5.291
298.1 K | – | – | 37.8 | –
298.15 K | 1034.2 | 1.45769 | – | 4.955
303.15 K | 1029.9 | 1.45576 | – | 4.337
307.8 K | – | – | 36.7 | –
308.15 K | 1025.6 | 1.45379 | – | 3.828
313.15 K | 1021.3 | 1.45185 | – | 3.225
318.15 K | 1017 | 1.44985 | – | 3.051
318.5 K | – | – | 36.1 | –
323.15 K | 1012.7 | 1.44791 | – | 2.75
328.15 K | 1008.4 | 1.44593 | – | 2.492
328.3 K | – | – | 35 | –
333.15 K | 1004.1 | 1.44395 | – | 2.171
338.15 K | 999.8 | 1.44197 | – | 2.078
339.9 K | – | – | 33.7 | –
343.15 K | 995.8 | 1.44 | – | 1.91
344.2 K | – | – | 33.3 | –
348.15 K | 991.5 | 1.438 | – | 1.762
353.15 K | 987.2 | 1.43607 | – | 1.547
358.15 K | 982.8 | – | – | 1.515
363.15 K | 978.5 | – | – | 1.412
